The source of these data is ChEMBL document CHEMBL1201862, “PubChem BioAssay data set” (2004).

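Step 1: Grow cells in 96-well plates. Step 2: Expose to compound for 48 hours at 5 concentrations. Step 3: Interpolate endpoints linearly; if unreached, use highest concentration. Abbreviation: GI50, concentration required for 50% inhibition of growth.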 Active and inactive are the calls of the source. No stated cut-off is given here; in the data, active = GI50 up to about 1.1 µM and inactive = higher.

The test system of one test is MDA-N. In words: NCI anticancer screen, dose series, 48 h.
For another test, the system named is BT-549. In words: NCI anticancer screen, dose series, 48 h.

On to `c1ccc(-c2sc(-c3ccccc3)c3c2C2CCC3C2)cc1`, for which the GI50 was 43 µM (inactive) in the test on MDA-N and 40.7 µM (inactive) in the test with BT-549.
As for `Cc1cc(S(=O)(=O)[N-]/C(=N/S(=O)(=O)c2cc(Cl)sc2Cl)[n+]2ccc(N(C)C)cc2)c(S)cc1Cl`, the GI50 in the test with MDA-N was 34 µM (inactive).
`Cc1cn([C@@H]2O[C@H](CO[Si](C)(C)C(C)(C)C)[C@]3(O[C@H]3C(=O)NO)[C@H]2O[Si](C)(C)C(C)(C)C)c(=O)[nH]c1=O`: the GI50 was 1.58 µM (inactive) in the test on MDA-N and 1.66 µM (inactive) in the test on BT-549.
Regarding `O=C(O)c1cc(CC2Cc3cc4c(cc3C2=O)CCC4)cc2c1CCC2` (stereo not given), the GI50 in the test with BT-549 is > 100 µM (inactive).
For `COc1cc(C(C)=O)cc(C(=O)N(C(C)C)C(C)C)c1[Si](C)(C)C`, the GI50 in the test on MDA-N and in the test with BT-549 was > 100 µM (inactive) each time.
Consider `C=C(C(=O)O)[C@@H]1C[C@@H]2O[C@H]1CC(C)=CCC/C(C)=C/CC[C@@]2(C)O`, for which the GI50 in the test on MDA-N and in the test with BT-549 was > 100 µM (inactive) throughout.
Consider `O=C(O)c1c(CC(Cc2ccc3c(c2)CCCC3)C(=O)O)ccc2c1CCCC2` (stereo not given), for which the GI50 in the test with MDA-N and in the test on BT-549 was > 100 µM (inactive) in each case.
Turning to `CCCCCCCCCCCCCCCCOP(=O)(O)OCC(N)C(=O)O` (stereo not given), in the test on MDA-N, the GI50 is 23.5 µM (inactive).
For the compound `COC(=O)c1c2c(cc3c1CC1(C3)Cc3cc4c(c(C(C)=O)c3C1)CCC4)C=CC2` (stereo not given), the figures for the GI50 with MDA-N and with BT-549 were > 10 µM (inactive) and > 31.6 µM (inactive), respectively.
As for `Cc1ccc(N/N=C/C2=CC(C)(C)C(C#N)(C#N)C(O)=C2C#N)cc1`, the GI50 with MDA-N was 54.8 µM (inactive).
Same read-out and setting: as for `O=[N+]([O-])/C(C(Cl)=C(Cl)Cl)=C(/Nc1ccccc1)SCc1ccccc1`, the figure is 16.7 µM (inactive).
With `CC(C)(C)[Si](C)(C)OCC1OC(n2cnc3c(=O)[nH]c(N)nc32)C(O[Si](C)(C)C(C)(C)C)C1O[Si](C)(C)C(C)(C)C` (stereo not given), the GI50 in the test on MDA-N was 1.57 µM (inactive).
Turning to `c1ccc(Nc2nnc(CCCCCCCCc3nnc(Nc4ccccc4)o3)o2)cc1`, in the test on BT-549, the GI50 is > 100 µM (inactive).
For the compound `CN(CCc1ccccn1)c1ccc2c(c1)Cc1ccccc1-2`, in the test with BT-549, the GI50 was 14.7 µM (inactive).
Turning to `COc1ccc(N2C(=O)C(=O)N(c3ccccc3[N+](=O)[O-])C2=S)cc1`, the GI50 in the test on MDA-N is 27 µM (inactive).
For `CCOC(=O)c1cc(C)nc2c1c(=O)n(-c1ccccc1)c(=O)n2CCCCN1CCN(c2ccccc2)CC1`, the GI50 with BT-549 is > 100 µM (inactive).
Take `CCOC(=O)C1(C(=O)OCC)C[C@@H](C)[C@@H](O)C1`: the GI50 in the test with MDA-N is > 100 µM (inactive).
Take `CC(=O)OCC1OC(n2c(C)c(/N=N/c3ccc(Cl)cc3)c(C)c(C#N)c2=S)C(OC(C)=O)C(OC(C)=O)C1OC(C)=O` (stereo not given): the GI50 in the test on MDA-N is > 100 µM (inactive); in the test with BT-549, 15.3 µM (inactive).
In the same order, the values of `Cc1ccc2c(=O)[nH]sc2c1` are 14 µM (inactive) and 15.4 µM (inactive).
In the case of `Clc1ccc2c(NCCCC/N=C/c3ccccc3)ccnc2c1`, the values for the GI50 in the test on MDA-N and with BT-549 were 11.7 µM (inactive) and 13.4 µM (inactive), respectively.
Turning to `Cc1ccc(S(=O)(=O)NC(=O)NCC(=O)NCC(=O)O)cc1`, the GI50 in the test with MDA-N and in the test on BT-549 was > 100 µM (inactive) each time.
Turning to `C[C@]12CC[C@@H]3c4ccc(OP(=O)(O)O)cc4CC[C@H]3[C@@H]1CCC2=O`, the GI50 with MDA-N was 58.5 µM (inactive); in the test with BT-549, 67.6 µM (inactive).
For the compound `CC(O)CCCCC(O)CCC[C@H](O)[C@H]1CCC([C@H]2CCC([C@@H](O)CCCCCCCCCCCCC3=C[C@H](C)OC3=O)O2)O1` (stereo not given in full), the figures for the GI50 in the test on MDA-N and in the test on BT-549 were 10.6 µM (inactive) and 11.2 µM (inactive), respectively.
Turning to `C=C1C(=O)C23CC1C[C@H](OC(C)=O)C2C1(C)C(OC(C)=O)C[C@H](O)C(C)(C)[C@H]1C(O)[C@@H]3OC(C)=O` (stereo not given in full), the GI50 with BT-549 was 3.03 µM (inactive).
For `NCCCCNCCCN1CC1`, the GI50 is 1.62 µM (inactive) in the test on MDA-N and 1.06 µM (active) in the test on BT-549.
As for `CC1=CC(=O)[C@@H](O)[C@]2(C)[C@H]3[C@@]4(O)OC[C@@]35[C@@H](C[C@@H]12)OC(=O)C(OC(=O)CC1=CCCC1)[C@H]5[C@@H](C)[C@H]4O` (stereo not given in full), the GI50 is 0.0269 µM (active) in the test with MDA-N and 0.0409 µM (active) in the test on BT-549.
